Reference: article PMC11476419, “Analysis of Punicalin and Punicalagin Interaction with PDIA3 and PDIA1” (International Journal of Molecular Sciences, 2024)

What was measured:
T98G cells [1] = assay: Cell viability by MTT assay; assay type: cell-based, human
Description: (§1) The cell viability assay was used to evaluate the effect of punicalin as a PDI inhibitor. T98G and U87 MG glioblastoma cell lines were treated with increasing concentrations of punicalin, and the reduction in MTT substrate was determined after 24 h, 48 h, and 72 h. […] Here, we compared the ability of punicalin with that of punicalagin to prevent the growth of these cells (Figure 5).
(§2) T98G and U-87 MG cells were seeded into 96-well plates (10.000 cells/well). The effect of punicalin, at the final concentration of 1 µM to 20 µM, was evaluated on cell viability after 24 h and 48 h of incubation. To assess cell viability, the enzymatic reduction of MTT (3-(4,5-dimethylthiazol-2-yl)-2,5-diphenyl-2H-tetrazolium bromide) (Sigma-Aldrich, Milan, Italy, cat. M2128) to MTT formazan was used. Cell cultures were further incubated for 2 h in culture medium containing 0.5 mg/mL MTT. After 2 h of incubation, the solution was removed and the blue MTT formazan product was dissolved in DMSO (Sigma-Aldrich, cat. D8418). After 30 min at room temperature, the absorbance of the formazan solution was spectrophotometrically read at 570 nm using an Appliskan® plate reader (Thermo Fisher Scientific, Monza, Italy).

U87 MG cells [2] = assay: Cell viability by MTT assay; assay type: cell-based, human; conditions: 1 µM to 20 µM, 24 h, 48 h, 72 h
Description: as §1, §2

T98G cells [3] = assay: Cell counting (crystal violet); assay type: cell-based, human
Description: (§3) The number of cells was evaluated after 24 h, 48 h, and 72 h of treatment with punicalin at the concentration of 5 µM and 20 µM (Figure 5b). […] However, an increase in the cell number occurred after 72 h of treatment with punicalin at a 5 µM concentration.
(§4) T98G and U-87 MG cells were seeded into 12-well plates (70,000 cells/well) and treated with 5 µM and 20 µM concentrations of punicalin for 24 h, 48 h, and 72 h. At the end of incubation, the cells were washed with PBS (Sigma-Aldrich, cat. D8662), fixed with cold methanol for 20 min, stained with 0.1% crystal violet in methanol/PBS (ratio 1:4) at room temperature for 1 h, and washed again in PBS. To estimate the number of cells remaining in each well, the crystal violet was solubilized by adding a methanol/water solution (50% v/v) and the absorbance at 595 nm was measured.

U87 MG cells [4] = assay: Cell counting (crystal violet); assay type: cell-based, human; conditions: 5 µM and 20 µM, 24 h, 48 h, 72 h
Description: as §3, §4

PDIA1 = target: T1, PDIA1 (Homo sapiens, UniProt P07237); assay: Insulin turbidity assay, disulfide reductase activity; assay type: biochemical; conditions: insulin substrate, PDIA1 800 nM, reducing conditions
T1 construct: The mature human PDIA1 with an N-terminal His6x-tag was expressed and purified; His6 (N); made in house
Description: To further evaluate the inhibitory effect of punicalin and punicalagin on the enzymatic activity of the two proteins, we performed a different assay using insulin, a physiologically more appropriate substrate. The results obtained are reported in Figure 4 and show again a lesser inhibitory effect of punicalin compared to punicalagin, as observed with the glutathione-based assay.
PDI disulfide reductase activity was assayed by measuring the reduction of insulin catalyzed by PDIs with DTT. A 50 μM stock solution of each PDI was reduced using TCEP (5 mM final concentration) for 90 min at room temperature. […] After incubation, an equal volume of the 2× reaction mixture (consisting of DTT 50 μM and human insulin 0.32 mM) was added. Protein activity was evaluated by monitoring the increase in turbidity of the solutions at 600 nm.
In both assays, the inhibition constants were extrapolated by GraphPad Prism 8.0 software (GraphPad Software, San Diego, CA, USA), plotting the obtained data as logarithm dose–response curves.

T1 sequence (P07237 18-508): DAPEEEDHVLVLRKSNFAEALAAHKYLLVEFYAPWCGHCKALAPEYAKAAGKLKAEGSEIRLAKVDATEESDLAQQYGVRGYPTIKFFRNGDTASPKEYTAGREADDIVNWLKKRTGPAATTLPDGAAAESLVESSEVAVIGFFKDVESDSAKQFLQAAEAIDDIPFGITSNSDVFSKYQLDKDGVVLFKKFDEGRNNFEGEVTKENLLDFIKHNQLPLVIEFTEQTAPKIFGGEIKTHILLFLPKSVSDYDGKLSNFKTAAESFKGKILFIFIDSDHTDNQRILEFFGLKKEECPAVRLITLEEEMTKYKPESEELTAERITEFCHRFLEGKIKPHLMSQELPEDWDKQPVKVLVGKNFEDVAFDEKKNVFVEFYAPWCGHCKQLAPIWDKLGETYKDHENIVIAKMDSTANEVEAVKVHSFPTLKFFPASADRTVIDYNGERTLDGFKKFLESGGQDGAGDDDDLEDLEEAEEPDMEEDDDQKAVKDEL

O=C1OC[C@H]2OC(O)[C@H](O)[C@@H](O)[C@@H]2OC(=O)c2cc(O)c(O)c(O)c2-c2c(O)c(O)c3oc(=O)c4c(c(O)c(O)c5oc(=O)c2c3c54)-c2c1cc(O)c(O)c2O (mixture of isomers) [Punicalin, punicalin]
effect on cell viability (MTT) (T98G cells [1]; 1 µM to 20 µM, 24 h, 48 h, 72 h): concentration- and time-dependent decrease in cell viability | effect on cell viability (T98G cells [1]; 20 µM): significantly reduced the cell viability | effect on cell viability (MTT) (U87 MG cells [2]): the effect becomes evident only at the highest concentration | kind of effect on cells (T98G cells [3]; 5 µM): preferential cytostatic effect | kind of effect on cells (T98G cells [3]; 20 µM): cytotoxic | effect on cell number (T98G cells [3]; 48 h, 5 µM and 20 µM): marked reduction in the T98G cell number | effect on cell number (U87 MG cells [4]): the effect is evident only at the highest concentration used | IC50 (PDIA1): > 250 µM
